Assay results: patent US12648941B2, “Piperidine urea derivatives for use as inotropic agents” (Helsinn Healthcare SA, priority 2021, dated 2026)
Where two headings read alike, the source gives them in different places.

Assays:
[1] = Phase 1 SAD, safety and tolerability; type: in vivo, human
Experimental: Single-center, randomized, double-blind, placebo-controlled, single ascending dose (SAD) study. Screening examinations were performed within 28 days prior to dosing. Eligible subjects returned to the study center in the morning of Day-1 and remained in-patient until discharge at 72 hours after dosing (morning of Day 4) if there were no safety issues. The oral dose was administered in the morning of Day 1. Subjects returned to the clinic 7 days after treatment, in the morning of Day 8 (±1 day), for the safety assessments. Adverse events (AEs), vital signs (blood pressure, pulse rate and body temperature), 12-lead ECG, Holter-ECG, physical examination (PE), and laboratory tests (hematology, clinical chemistry, and urinalysis) assessed during screening and several times throughout the study.

[2] = Phase 1 single ascending dose study, plasma pharmacokinetics; type: in vivo, human; conditions: for AUClast/D / Cmax/D / AUC∞/D / CL/F / λz / AUC(0-t) / Cmax / AUC(0-inf) / MRT / Vd/F: geometric mean; for AUC(0-t): po; for Vd/F: read-out: Vz/F
Experimental: Single-center, randomized, double-blind, placebo-controlled, single ascending dose (SAD) study.
Screening examinations were performed within 28 days prior to dosing. Eligible subjects returned to the study center in the morning of Day-1 and remained in-patient until discharge at 72 hours after dosing (morning of Day 4) if there were no safety issues. The oral dose was administered in the morning of Day 1. Subjects returned to the clinic 7 days after treatment, in the morning of Day 8 (±1 day), for the safety assessments.
Healthy male non-smoking subjects, between 18 and 50 years of age inclusive, with a body mass index (BMI) between 18.5 and 29.9 kg/m^2 inclusive. Cohorts of 8 subjects per dose step were planned. Cohort 1 (10 mg or placebo) was stopped after dosing of 4 subjects. Cohorts 2 to 4 consisted of 8 subjects each, i.e., a total number of 28 subjects were randomized and completed the study. There were no withdrawals.
HM01 HCl powder in gelatine capsules. Capsules with the strength of 0.1 mg and 1.0 mg and 10 mg for cohort 1 were available. • Cohort 1:10 mg HM01 • Cohort 2:0.1 mg HM01 Cohort 3:0.3 mg HM01 Cohort 4:1.0 mg HM01
Subjects were dosed in a fasted state (no food for at least 8 hours). Access to food was restricted until 4 hours after dosing. Capsules were administered orally together with 240 mL water.
Blood samples for analytical assay of HM01 and the 3 major metabolites (M2, M6 and M9) were collected at pre-dose (within 60 minutes prior to drug administration), and at 0.25, 0.5, 1, 1.5, 2, 3, 4, 6, 8, 12, 16, 24, 30, 36, 48, 60 and 72 hours post dose (18 samples). Urine was collected for 24 hours after dosing. Blood and urine samples were analyzed for HM01 and its metabolites concentrations using validated LC-MS/MS methods.
PK parameters estimated included Cmax (maximum observed concentration), Cmax/D (Cmax per dose unit), tmax (peak time), Clast (last measurable concentration above the lower limit of quantification), tlast (time of Clast), AUC(0-24) and AUClast (area under the plasma concentration-time curve from time zero to 24 hours and to the last measurable concentration, tlast, respectively), AUClast/D (AUClast per dose unit), AUC∞(area under the plasma concentration-time curve from time zero to infinity), AUC∞(/D (AUC∞ per dose unit), t1/2 (apparent terminal half-life), CL/F (systemic clearance after extravascular administration, only for the parent drug), Vz/F (apparent volume of distribution after extravascular administration, only for the parent drug), MRT (mean residence time).

[3] = 0.1 mg HM01 single oral dose, N = 6
[4] = 0.3 mg HM01 single oral dose, N = 6
[5] = 0.3 mg HM01 single oral dose, n = 5
[6] = 1.0 mg HM01 single oral dose, N = 6
[7] = 10 mg HM01 single oral dose, N = 3
[8] = male, human, plasma, 0.3 mg HM01 single oral dose, n = 5
[9] = male, human, plasma, 1.0 mg HM01 single oral dose, N = 6
[10] = male, human, plasma, 10 mg HM01 single oral dose, N = 3

With `COc1ccc([C@H](C)NC(=O)N(C)[C@@H]2CCN(C)CC2(C)C)c(Cl)c1Cl.Cl` [AC01/HM01, 1-[(1S)-1-(2,3-dichloro-4-methoxyphenyl)ethyl]-3-methyl-3-[(4R)-1-methyl-3,3-dimethyl-4-piperidyl]-urea] the TEAEs reported ([1]; 0.1 mg) was “no TEAEs”, the “number of TEAEs” value ([1]; 0.3 mg) was 5 TEAEs and the “number of TEAEs” value ([1]; 1.0 mg) was 7 TEAEs. The “subjects reporting TEAEs of moderate intensity” value ([1]; 1.0 mg, hot flush) was 1 subject, the “number of TEAEs” value ([1]; 10 mg) was 19 TEAEs and the “subjects reporting TEAEs of moderate intensity” value ([1]; 10 mg, sinus bradycardia) was 1 subject. The “number of subjects reporting TEAEs and number of TEAEs, dose dependence” value ([1]; 0.1-10 mg single oral dose) was “increased dose-dependently”, the “mean systolic and diastolic blood pressure and body temperature” value ([1]; after dosing / between treatment groups) was “no clinically relevant changes” and the “intensity of TEAEs” value ([1]; all dose groups) was “Most TEAEs were of mild intensity”. The “laboratory parameters, differences between dosing groups” value ([1]; in vivo) was “no clinically relevant differences”, the “most frequently reported TEAEs” value ([1]; started mainly shortly after dosing, short duration) was “nervous system disorder (mainly headache) and cardiac disorders (mainly sinus bradycardia)” and the AUClast/D [2, 3] was 4.899 (h * ng/mL)/mg. The Cmax/D [2, 3] was 1.357 (ng/mL)/mg, the tlast ([2]; 0.1 mg HM01 single oral dose, N = 6, median) was 8.00 h and the AUClast/D [2, 4] was 9.396 (h * ng/mL)/mg. The Cmax/D [2, 4] was 0.9554 (ng/mL)/mg, the tlast ([2]; 0.3 mg HM01 single oral dose, N = 6, median) was 16.00 h and the “AUC∞/D” value [2, 5] was 15.19 (h * ng/mL)/mg. The CL/F [2, 5] was 65.8 L/h, the λz [2, 5] was 0.0821 h⁻¹ and the AUClast/D [2, 6] was 14.71 (h * ng/mL)/mg. The “AUC∞/D” value [2, 6] was 16.94 (h * ng/mL)/mg, the CL/F [2, 6] was 59.0 L/h and the Cmax/D [2, 6] was 1.280 (ng/mL)/mg. The λz [2, 6] was 0.0648 h⁻¹, the tlast ([2]; 1.0 mg HM01 single oral dose, N = 6, median) was 36.00 h and the AUClast/D [2, 7] was 17.61 (h * ng/mL)/mg. For the same compound, the “AUC∞/D” value [2, 7] was 17.88 (h * ng/mL)/mg, the CL/F [2, 7] was 55.9 L/h and the Cmax/D [2, 7] was 1.528 (ng/mL)/mg. It also gave a λz [2, 7] of 0.0646 h⁻¹, a tlast ([2]; 10 mg HM01 single oral dose, N = 3, median) of 72.00 h and a half-life ([2]; male, human, plasma, oral, similar for all doses, read-out: arithmetic mean half-life of HM01) of 9 to 11 h. The clearance ([2]; male, human, plasma, oral, similar for all doses, read-out: geometric mean clearance of HM01) was 932 to 1100 mL/min, the Tmax ([2]; male, human, plasma, oral, similar for all doses, read-out: median tmax of HM01) was 3 to 4 h and the apparent volume of distribution (Vz/F) ([2]; male, human, plasma, oral, similar for all doses, read-out: volume of distribution of HM01) was 801 to 911 L. It also gave an AUC(0-t) ([2]; male, human, plasma, 0.1 mg, 0.1 mg HM01 single oral dose, fasted healthy males, N = 6, read-out: AUClast) of 0.49 ng·h/mL, an AUC(0-t) ([2]; male, human, plasma, 0.3 mg, 0.3 mg HM01 single oral dose, N = 6, read-out: AUClast) of 2.82 ng·h/mL and an AUC(0-t) ([2]; male, human, plasma, 0.3 mg, 0.3 mg HM01 single oral dose, fasted healthy males, N = 6, read-out: AUC0-24h) of 3.75 ng·h/mL. It also gave an AUC(0-t) ([2]; male, human, plasma, 1 mg, 1.0 mg HM01 single oral dose, N = 6, read-out: AUClast) of 14.7 ng·h/mL, an AUC(0-t) ([2]; male, human, plasma, 1 mg, 1.0 mg HM01 single oral dose, fasted healthy males, N = 6, read-out: AUC0-24h) of 13.4 ng·h/mL and an AUC(0-t) ([2]; male, human, plasma, 10 mg, 10 mg HM01 single oral dose, N = 3, read-out: AUClast) of 176 ng·h/mL. For the same compound, the AUC(0-t) ([2]; male, human, plasma, 10 mg, 10 mg HM01 single oral dose, fasted healthy males, N = 3, read-out: AUC0-24h) was 149 ng·h/mL, the Cmax ([2]; male, human, plasma, 0.1 mg HM01 single oral dose, N = 6) was 0.136 ng/mL and the Tmax ([2]; male, human, plasma, 0.1 mg HM01 single oral dose, N = 6, median, read-out: tmax) was 3 h. The Cmax ([2]; male, human, plasma, 0.3 mg HM01 single oral dose, N = 6) was 0.287 ng/mL, the Tmax ([2]; male, human, plasma, 0.3 mg HM01 single oral dose, N = 6, median, read-out: tmax) was 4 h and the half-life ([2]; male, human, plasma, 0.3 mg HM01 single oral dose, n = 5, arithmetic mean, read-out: t1/2 (converted)) was 8.83 h. It also gave an AUC(0-inf) [2, 8] of 4.56 ng·h/mL, an MRT [2, 8] of 14.4 h and a Vd/F [2, 8] of 801 L. For the same compound, the half-life ([2]; male, human, plasma, 1.0 mg HM01 single oral dose, N = 6, arithmetic mean, read-out: t1/2 (converted)) was 11 h, the AUC(0-inf) [2, 9] was 16.9 ng·h/mL and the Cmax [2, 9] was 1.28 ng/mL. For the same compound, the MRT [2, 9] was 15.3 h, the Vd/F [2, 9] was 911 L and the Tmax ([2]; male, human, plasma, 1.0 mg HM01 single oral dose, N = 6, median, read-out: tmax) was 4 h. For the same compound, the half-life ([2]; male, human, plasma, 10 mg HM01 single oral dose, N = 3, arithmetic mean, read-out: t1/2 (converted)) was 10.9 h, the AUC(0-inf) [2, 10] was 179 ng·h/mL and the Cmax [2, 10] was 15.3 ng/mL. The MRT [2, 10] was 14.2 h, the Vd/F [2, 10] was 866 L and the Tmax ([2]; male, human, plasma, 10 mg HM01 single oral dose, N = 3, median, read-out: tmax) was 3 h. For the same compound, the “dose dependence of AUC∞” value ([2]; single oral doses of HM01) was “dose proportional increase” and the “dose dependence of max” value ([2]; single oral doses of HM01) was “dose proportional increase”.
